The numbers were not newly measured in patent US20170281607A1, “PHARMACEUTICAL COMPOSITIONS AND METHODS FOR THE TREATMENT OF DIABETES” (University of Limerick, priority 2016, published 2017), which cites them from elsewhere.

The conditions of the series: in vivo.

A word on the half-life: it is the time needed for the level to fall by half in the phase considered. For `COc1ccc2c(c1)[nH]c1c(C)nccc12` [harmine, 7-Methoxy-1-methyl-9H-pyrido[3,4-b]indole], the half-life is 1 to 3 h.
